Experimental data reported in patent US20240124436A1 (priority 2019, published 2024).
Where two headings read alike, the source gives them in different places.

System: pathogens of rice blast
Assay type: cell-based
Details: 25° C., 6 days, elongation length of hyphae

COc1nc(-c2nccs2)nc(F)c1C(F)(F)F [Example 3, 6-fluoro-4-methoxy-2-(2-thiazolyl)-5-(trifluoromethyl)pyrimidine]
Control value (test solution 1000 ppm, 1,000 μl on oatmeal culture medium): 68 | Control value (test solution 2000 ppm, 1,000 μl on oatmeal culture medium): 100
